In general, IC50 refers to the point on the concentration scale where inhibition reaches its midpoint.

The target of the first test is hsDHODH (Homo sapiens (Human), UniProt Q02127). Kind of test: Activity test at enzyme level: DHODH inhibition, DCIP absorbance at 600 nm. The format is biochemical. The note with it: pharmaceutically acceptable esters (prodrugs of A and B series), hsDHODH enzyme test; read-out: IC50. Here is the method: Culture and Purification of hsDHODH Protein
Chain of hsDHODH (Q02127 whole entry): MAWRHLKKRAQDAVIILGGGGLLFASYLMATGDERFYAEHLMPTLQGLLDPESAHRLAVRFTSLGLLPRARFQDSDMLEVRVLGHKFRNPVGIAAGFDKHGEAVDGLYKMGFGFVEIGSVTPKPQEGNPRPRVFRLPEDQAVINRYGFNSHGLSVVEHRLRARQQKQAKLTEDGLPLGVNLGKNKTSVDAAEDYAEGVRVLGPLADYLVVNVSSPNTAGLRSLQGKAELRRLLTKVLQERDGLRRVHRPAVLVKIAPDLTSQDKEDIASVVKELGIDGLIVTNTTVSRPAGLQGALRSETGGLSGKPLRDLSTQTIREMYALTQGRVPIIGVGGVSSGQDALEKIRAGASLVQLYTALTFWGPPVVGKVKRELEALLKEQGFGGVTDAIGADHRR
The correctly sequenced recombinant plasmid pET-19b-DHODH was transformed into competent E. coli BL21 (DE3), and cultured on LB plate containing ampicillin. Colonies were randomly selected, inoculated into LB medium containing […], and incubate overnight at 37° C., 230 rpm. The cells were inoculated at a ratio of 1:200 in 500 mL of LB medium containing […] and expanded at 37° C., 230 rpm. When the OD value of the cells reached 0.8-1, IPTG was added into the medium to a final concentration of IPDG of 0.5 mM, and expression was induced overnight at 25° C. The induced cells were collected by centrifugation at […], 4° C., washed with deionized water, and centrifuged again to collect the bacterial pellet, which was stored at −80° C.
Purification of protein: cells were re-suspended in lysis liquid containing 50 mM HEPES (pH 8.0), 0.15 M NaCl, 10 mM imidazole, 10% glycerol, 0.1% Triton X-100, and a small amount of soy protease inhibitor added. After re-suspended and mixed homogeneously, cells were ultrasonically disrupted. The disruption solution was centrifuged for 30 min, and the supernatant and precipitate were taken for protein electrophoresis to determine the form of protein. The supernatant was loaded onto a Ni-NTA column, and the pass-through liquid was collected, and then the resin was washed for 3-4 times with a lysis liquid containing 20 mM imidazole, and finally eluted with a lysis liquid containing 300 mM imidazole. After elution, protein solution was collected. 10 μL of the above protein sample was taken for SDS-PAGE electrophoresis to determine the content of target protein. Finally, the eluted protein solution is dialyzed in the dialysis liquid to remove imidazole, thereby obtaining a pure protein.
Method for Testing Activities of Compounds at Enzyme Level
Principles of activity test at enzyme level: firstly, dihydroorotate (DHO) is oxidatively dehydrogenated by DHODH to form orotic acid (Orotate, OA), accompanied by reduction of Flavin mononucleotide (FMN) into reduced flavin mononucleotide (FMNH2) by accepting 2H+ and 2e−, then coenzyme Q (CoQ) as hydrogen acceptor accepting electron and proton from FMNH2 is reduced into reduced coenzyme Q (CoQH2), reduced coenzyme Q transfers electrons to a chromogenic substrate, […] (DCIP), and finally DCIP was reduced. […] The degree to which the substrate DHO is oxidized can be judged based on the degree of decrease in absorbance. The degree of oxidation of the substrate DHO per unit time is the initial rate of the enzymatic reaction. Upon addition of a inhibitor, the initial rate of the enzymatic reaction is reduced.
Substrate DHO was added to start the reaction with a DHO final concentration of 500 μM. The absorbance was read at 600 nm using a BioTek microplate reader and read every 30 s for 6 min. […] For calculating IC50 of a compound, Origin 8.0 was used to test the inhibition rate at least 8 concentrations.
Take `CCCCOC(=O)c1ccccc1/C=N/Nc1nc(-c2ccccc2Cl)cs1` [Compound A4, (E)-4-(2-chlorophenyl)-2-(2-butoxyformylbenzylidenehydrazino)thiazole]: the IC50 was determined as 3.53 ± 0.148 µM.

Take `CN(/N=C/c1ccccc1C(=O)OC1CCCCC1)c1nc(-c2ccccc2Cl)cs1` [Compound B8, (E)-4-(2-chlorophenyl)-2-[1-methyl-2-(2-cyclohexyloxyformylbenzylidene)hydrazino]thiazole]: the IC50 is above 50 µM.

Turning to `CCOC(=O)c1ccccc1/C=N/Nc1nc(-c2ccccc2Cl)cs1` [Compound A1, (E)-4-(2-chlorophenyl)-2-(2-ethoxyformylbenzylidenehydrazino)thiazole], the IC50 stood at 2.34 ± 0.0468 µM.

As for `CC(C)(C)C(=O)OCOC(=O)c1ccccc1/C=N/Nc1nc(-c2ccccc2Cl)cs1` [Compound A9, (Pivaloyloxy)methyl (E)-2-((2-(4-(2-chlorophenyl)thiazol-2-yl)hydrazono)methyl)benzoate], the concentration for half-maximal inhibition (IC50) is above 50 µM.

In the case of `CCOC(=O)c1ccccc1/C=N/N(C)c1nc(-c2ccccc2Cl)cs1` [Compound B1, (E)-4-(2-chlorophenyl)-2-[1-methyl-2-(2-ethoxyformylbenzylidene)hydrazino]thiazole], the IC50 was determined as 2.79 ± 0.0465 µM.

For `O=C(OC1CCCCC1)c1ccccc1/C=N/Nc1nc(-c2ccccc2Cl)cs1` [Compound A8, (E)-4-(2-chlorophenyl)-2-(2-cyclohexyloxyformylbenzylidenehydrazino)thiazole], the IC50 was above 50 µM.

On to `CCCCCCOC(=O)c1ccccc1/C=N/N(C)c1nc(-c2ccccc2Cl)cs1` [Compound B7, (E)-4-(2-chlorophenyl)-2-[1-methyl-2-(2-hexyloxyformylbenzylidene)hydrazino]thiazole], for which the half-maximal inhibitory concentration (IC50) is above 50 µM.

As for `CCCCCOC(=O)c1ccccc1/C=N/N(C)c1nc(-c2ccccc2Cl)cs1` [Compound B6, (E)-4-(2-chlorophenyl)-2-[1-methyl-2-(2-pentyloxyformylbenzylidene)hydrazino]thiazole], the IC50 was above 50 µM.

For the compound `CCC(C)OC(=O)c1ccccc1/C=N/N(C)c1nc(-c2ccccc2Cl)cs1` (stereo not shown) [Compound B5, (E)-4-(2-chlorophenyl)-2-[1-methyl-2-(2-(2-butoxy)formylbenzylidene)hydrazino]thiazole], the IC50 is above 50 µM.

On to `CN(/N=C/c1ccccc1C(=O)OCOC(=O)C(C)(C)C)c1nc(-c2ccccc2Cl)cs1` [Compound B10, (pivaloyloxy)methyl (E)-2-((2-(4-(2-chlorophenyl)thiazol-2-yl)-2-methylhydrazono)methyl)benzoate], for which the IC50 was above 50 µM.

As for `CCCOC(=O)c1ccccc1/C=N/N(C)c1nc(-c2ccccc2Cl)cs1` [Compound B2, (E)-4-(2-chlorophenyl)-2-[1-methyl-2-(2-propoxyformylbenzylidene)hydrazino]thiazole], the IC50 is 1.96 ± 0.111 µM.

For the compound `CN(C)C(=O)c1ccccc1/C=N/Nc1nc(-c2ccccc2Cl)cs1` [Compound A13, (E)-4-(2-chlorophenyl)-2-((N,N-Dimethyl)formylbenzylidenehydrazino)thiazole], the IC50 is above 50 µM.

Take `CCCCOC(=O)c1ccccc1/C=N/N(C)c1nc(-c2ccccc2Cl)cs1` [Compound B4, (E)-4-(2-chlorophenyl)-2-[1-methyl-2-(2-butoxyformylbenzylidene)hydrazino]thiazole]: the half-maximal inhibitory concentration (IC50) was above 50 µM.

Regarding `CCCCCCOC(=O)c1ccccc1/C=N/Nc1nc(-c2ccccc2Cl)cs1` [Compound A7, (E)-4-(2-chlorophenyl)-2-(2-hexyloxyformylbenzylidenehydrazino)thiazole], the IC50 was above 50 µM.

Consider `CCCCCOC(=O)c1ccccc1/C=N/Nc1nc(-c2ccccc2Cl)cs1` [Compound A6, (E)-4-(2-chlorophenyl)-2-(2-pentyloxyformylbenzylidenehydrazino)thiazole], for which the half-maximal inhibitory concentration (IC50) is above 50 µM.

On to `CC(C)OC(=O)c1ccccc1/C=N/Nc1nc(-c2ccccc2Cl)cs1` [Compound A3, (E)-4-(2-chlorophenyl)-2-(2-isopropoxyformylbenzylidenehydrazino)thiazole], for which the IC50 amounted to 1.86 ± 0.0214 µM.

As for `CCC(C)OC(=O)c1ccccc1/C=N/Nc1nc(-c2ccccc2Cl)cs1` (stereo not shown) [Compound A5, (E)-4-(2-chlorophenyl)-2-(2-(2-butoxy)formylbenzylidenehydrazino)thiazole], the IC50 was determined as 4.651 ± 0.0264 µM.

The test is the same for the next values; noted with them: purified DHODH 10 nM, DHO 500 μM, CoQ 100 μM, DCIP 120 μM; read-out: IC50 (μM) hsDHODH.
In the case of `CN(/N=C/c1ccc(C(F)(F)F)cc1C(=O)O)c1nc(-c2ccccc2Cl)cs1` [Compound 8, (E)-4-(2-chlorophenyl)-2-[1-methyl-2-(4-trifluoromethyl-2-carboxybenzylidene)hydrazino]thiazole], the IC50 worked out at 0.0868 ± 0.0009 µM.

`CCCC(C)N(/N=C/c1ccccc1C(=O)O)c1nc(-c2ccccc2Cl)c(C)s1` (stereo not shown) [Compound 22, (E)-5-methyl-4-(2-chlorophenyl)-2-[1-(2-amyl)-2-(2-carboxybenzylidene)hydrazino]thiazole]: the IC50 was 0.0154 ± 0.0002 µM.

In the case of `CN(/N=C/c1ccc(F)cc1C(=O)O)c1nc(-c2ccccc2Cl)cs1` [Compound 10, (E)-4-(2-chlorophenyl)-2-[1-methyl-2-(2-carboxyl-4-fluorobenzylidene)hydrazino]thiazole], the IC50 worked out at 0.0018 ± 0.0001 µM.

`Cc1sc(N/N=C/c2ccccc2C(=O)O)nc1-c1ccccc1` [Compound 17, (E)-5-methyl-4-phenyl-2-(2-carboxylbenzylidenehydrazino)thiazole]: the half-maximal inhibitory concentration (IC50) was 0.0811 ± 0.0001 µM.

In the case of `CCCN(/N=C/c1ccccc1C(=O)O)c1nc(-c2ccccc2Cl)cs1` [Compound 3, (E)-4-(2-chlorophenyl)-2-[1-propyl-2-(2-carboxybenzylidene)hydrazino]thiazole], the IC50 stood at 0.0086 ± 0.0001 µM.

Take `CCCC(C)N(/N=C/c1ccccc1C(=O)O)c1nc(-c2ccccc2Cl)cs1` (stereo not shown) [Compound 6, (E)-4-(2-chlorophenyl)-2-[1-(2-amyl)-2-(2-carboxybenzylidene)hydrazino]thiazole]: the IC50 was 0.0191 ± 0.0006 µM.

For `CN(/N=C/c1cc(N)c(F)cc1C(=O)O)c1nc(-c2ccccc2Cl)cs1` [Compound 25], the IC50 was found to be 0.0316 ± 0.0001 µM.

`CN(/N=C/c1cc(O)c(F)cc1C(=O)O)c1nc(-c2ccccc2Cl)cs1` [Compound 24]: the half-maximal inhibitory concentration (IC50) came to 0.0214 ± 0.0005 µM.

Regarding `Cc1ccc(/C=N/N(C)c2nc(-c3ccccc3)c(C)s2)c(C(=O)O)c1` [Compound 11, (E)-5-methyl-4-phenyl-2-[1-methyl-2-(4-methyl-2-carboxybenzylidene)hydrazino]thiazole], the half-inhibitory concentration (IC50) was 0.0136 ± 0.0005 µM.

Take `CCc1sc(N/N=C/c2ccccc2C(=O)O)nc1-c1ccccc1Cl` [Compound 14, (E)-5-ethyl-4-(2-chlorophenyl)-2-(2-carboxylbenzylidenehydrazino)thiazole]: the IC50 worked out at 0.356 ± 0.0064 µM.

For the compound `CN(/N=C/c1ccccc1C(=O)O)c1nc(-c2ccccc2)cs1` [Compound 20, (E)-4-phenyl-2-[1-methyl-2-(2-carboxybenzylidene)hydrazino]thiazole], the IC50 amounted to 0.0244 ± 0.0005 µM.

On to `Cc1sc(N(C)/N=C/c2ccccc2C(=O)O)nc1-c1ccccc1` [Compound 12, (E)-5-methyl-4-phenyl-2-[1-methyl-2-(2-carboxybenzylidene)hydrazino]thiazole], for which the IC50 amounted to 0.0088 ± 0.0001 µM.

Consider `CN(/N=C/c1cc(F)c(F)cc1C(=O)O)c1nc(-c2ccccc2Cl)cs1` [Compound 23], for which the IC50 stood at 0.0044 µM.

For `Cc1sc(N/N=C/c2ccccc2C(=O)O)nc1-c1ccccc1Cl` [Compound 15, (E)-5-methyl-4-(2-chlorophenyl)-2-(2-carboxylbenzylidenehydrazino)thiazole], the IC50 is 0.0662 ± 0.0002 µM.

As for `O=C(O)c1c(F)cccc1/C=N/Nc1nc(-c2ccccc2Cl)cs1` [Compound 58, (E)-2-((2-(4-(2-chlorophenyl)thiazol-2-yl)hydrazono)methyl)-6-fluorobenzoic acid], the IC50 stood at 0.234 ± 0.0068 µM.

With `CN(/N=C/c1ccccc1C(=O)O)c1nc(-c2cc(Cl)ccc2Cl)cs1` [Compound 19, (E)-4-(2,5-dichlorophenyl)-2-[1-methyl-2-(2-carboxybenzylidene)hydrazino]thiazole], the IC50 came to 0.0282 µM.

As to `CN(/N=C/c1ccccc1C(=O)O)c1nc(-c2cccc(Cl)c2)cs1` [Compound 21, (E)-4-(3-chlorophenyl)-2-[1-methyl-2-(2-carboxybenzylidene)hydrazino]thiazole], the IC50 amounted to 0.0106 µM.

The record behind these values is patent US10919869B2, “Thiazole derivative and applications” (EAST CHINA UNIVERSITY OF SCIENCE AND TECHNOLOGY, priority 2016, dated 2021).
